Columns and labels:
Experiment in all cases: relative viability (nuclei count vs DMSO), 5 days (fraction); higher = more cells survive
[1] = compound: COc1cc2ncn(-c3cc(OCc4ccccc4C(F)(F)F)c(C(N)=O)s3)c2cc1OC + Cc1nc(Nc2ncc(C(=O)Nc3c(C)cccc3Cl)s2)cc(N2CCN(CCO)CC2)n1 [Dasatinib] (partner 0.075 µM)
In short: (§1)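 Lung cancer cell lines were seeded in 1536-well plates and dosed by pin tool the next day, with either a single drug or a fixed anchor-drug dose combined with five library-drug doses (not always all listed) spaced in √10 steps. Five days later, one step fixed the cells and stained their nuclei (final 0.05% Triton X-100, 1% formaldehyde, 1 ug/ml Hoechst), and nuclei were counted on 4× images. Relative viability is the nuclei count in treated wells divided by the count in vehicle wells, and each value is the median of duplicate plates.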

[2] = compound: COc1cc2ncn(-c3cc(OCc4ccccc4C(F)(F)F)c(C(N)=O)s3)c2cc1OC + CC1(C)CCC(c2ccc(Cl)cc2)=C(CN2CCN(c3ccc(C(=O)NS(=O)(=O)c4ccc(N[C@H](CCN5CCOCC5)CSc5ccccc5)c(S(=O)(=O)C(F)(F)F)c4)cc3)CC2)C1 [Navitoclax] (partner 0.5 µM)
In short: as §1

[3] = compound: COc1cc2ncn(-c3cc(OCc4ccccc4C(F)(F)F)c(C(N)=O)s3)c2cc1OC + CCNC(=O)c1noc(-c2cc(C(C)C)c(O)cc2O)c1-c1ccc(CN2CCOCC2)cc1 [Luminespib] (partner 0.01 µM)
In short: as §1

[4] = compound: COc1cc2ncn(-c3cc(OCc4ccccc4C(F)(F)F)c(C(N)=O)s3)c2cc1OC + CC(C)C[C@H](NC(=O)[C@H](Cc1ccccc1)NC(=O)c1cnccn1)B(O)O [Bortezomib] (partner 0.002 µM)
In short: as §1

Cell Line | relative viability ([1]; first compound 0.05 µM) | relative viability ([1]; first compound 0.1581 µM) | relative viability ([1]; first compound 0.5 µM) | relative viability ([1]; first compound 1.581 µM) | relative viability ([1]; first compound 5 µM) | relative viability ([2]; first compound 0.05 µM) | relative viability ([2]; first compound 0.1581 µM) | relative viability ([2]; first compound 0.5 µM) | relative viability ([2]; first compound 1.581 µM) | relative viability ([2]; first compound 5 µM) | relative viability ([3]; first compound 0.05 µM) | relative viability ([3]; first compound 0.1581 µM) | relative viability ([3]; first compound 0.5 µM) | relative viability ([3]; first compound 1.581 µM) | relative viability ([3]; first compound 5 µM) | relative viability ([4]; first compound 0.05 µM) | relative viability ([4]; first compound 0.1581 µM) | relative viability ([4]; first compound 0.5 µM) | relative viability ([4]; first compound 1.581 µM) | relative viability ([4]; first compound 5 µM)
LU99A | 0.493 | 0.548 | 0.256 | 0.182 | 0.135 | 0.87 | 0.786 | 0.434 | 0.169 | 0.124 | 0.225 | 0.304 | 0.207 | 0.172 | 0.203 | 1.14 | 1.08 | 0.898 | 0.206 | 0.201
LXF-289 | 0.225 | 0.206 | 0.124 | 0.037 | 0.0349 | 0.852 | 0.72 | 0.192 | 0.104 | 0.0566 | 0.42 | 0.483 | 0.259 | 0.0958 | 0.0607 | 0.84 | 0.781 | 0.649 | 0.0959 | 0.0616
NCI-H23 | 0.801 | 0.636 | 0.426 | 0.11 | 0.0948 | 0.913 | 0.773 | 0.284 | 0.157 | 0.103 | 0.211 | 0.209 | 0.213 | 0.206 | 0.22 | 1.14 | 0.847 | 0.648 | 0.132 | 0.117
NCI-H322M | 0.233 | 0.263 | 0.268 | 0.27 | 0.308 | 1.24 | 1.1 | 0.863 | 0.549 | 0.629 | 0.837 | 1.1 | 0.759 | 0.315 | 0.288 | 1.16 | 1.45 | 1.21 | 0.878 | 0.45
NCI-H441 | 0.573 | 0.538 | 0.265 | 0.174 | 0.168 | 0.623 | 0.405 | 0.233 | 0.151 | 0.164 | 0.312 | 0.378 | 0.216 | 0.224 | 0.202 | 0.565 | 0.463 | 0.273 | 0.154 | 0.176
NCI-H460 | 0.593 | 0.636 | 0.283 | 0.0166 | 0.0348 | 1.01 | 0.917 | 0.144 | 0.0132 | 0.0107 | 0.0239 | 0.0323 | 0.0299 | 0.0165 | 0.0166 | 1.08 | 0.805 | 0.487 | 0.0103 | 0.0108
NCI-H520 | 0.239 | 0.202 | 0.157 | 0.191 | 0.193 | 1.04 | 1.18 | 0.454 | 0.201 | 0.162 | 0.218 | 0.25 | 0.21 | 0.261 | 0.2 | 0.689 | 0.568 | 0.25 | 0.169 | 0.144
NCI-H596 | 0.616 | 0.561 | 0.478 | 0.279 | 0.235 | 0.782 | 0.869 | 0.58 | 0.262 | 0.16 | 1.16 | 1.08 | 0.79 | 0.272 | 0.276 |  | 1.11 | 0.828 | 0.638 | 0.312
NCI-H647 | 0.216 | 0.144 | 0.0412 | 0.0467 | 0.0528 | 1.17 | 1.08 | 0.245 | 0.0619 | 0.0475 | 0.438 | 0.143 | 0.12 | 0.101 | 0.069 | 1.2 | 0.814 | 0.324 | 0.0759 | 0.0904
NCI-H727 | 0.383 | 0.349 | 0.362 | 0.225 | 0.329 | 0.457 | 0.618 | 0.464 | 0.166 | 0.185 | 0.396 | 0.311 | 0.334 | 0.291 | 0.31 | 1.05 | 0.835 | 0.583 | 0.317 | 0.381
NCI-H838 | 0.302 | 0.291 | 0.224 | 0.255 | 0.156 | 1.2 | 1.23 | 0.733 | 0.15 | 0.135 | 0.301 | 0.283 | 0.128 | 0.136 | 0.114 | 0.979 | 0.776 | 0.525 | 0.132 | 0.0869
NCI-H1355 | 0.707 | 0.739 | 0.491 | 0.163 | 0.143 | 1.04 | 0.914 | 0.536 | 0.177 | 0.136 | 0.635 | 0.623 | 0.424 | 0.221 | 0.163 | 1.15 | 1.15 | 0.95 | 0.232 | 0.164
NCI-H1437 | 0.412 | 0.356 | 0.322 | 0.162 | 0.104 | 1.13 | 1.07 | 0.151 | 0.13 | 0.119 | 1.16 | 0.969 | 0.53 | 0.244 | 0.159 | 0.526 | 0.38 | 0.145 | 0.148 | 0.107
NCI-H1650 | 0.329 | 0.305 | 0.268 | 0.142 | 0.145 | 1.29 | 1.2 | 0.471 | 0.153 | 0.121 | 0.187 | 0.187 | 0.193 | 0.19 | 0.185 | 0.222 | 0.184 | 0.185 | 0.175 | 0.172
NCI-H1651 | 0.403 | 0.39 | 0.198 | 0.0914 | 0.0837 | 1.12 | 1.24 | 0.835 | 0.0858 | 0.0692 | 1.15 | 0.858 | 0.36 | 0.137 | 0.109 | 1.05 | 0.9 | 0.994 | 0.708 | 0.256
NCI-H1666 | 0.825 | 0.758 | 0.518 | 0.316 | 0.271 | 0.814 | 1.05 | 0.308 | 0.225 | 0.205 | 1.06 | 0.937 | 0.508 | 0.36 | 0.363 | 0.899 | 0.801 | 0.489 | 0.28 | 0.299
